Experimental data taken from patent US20240360165A1, “INHIBITORS OF CYCLIN DEPENDENT KINASE 7 (CDK7)” (Syros Pharmaceuticals, Inc., priority 2016, published 2024).
pIC50: −log10 of the molar value. Where two headings read alike, the source gives them in different places.

Assays:
[1] = target: CDK7/Cyclin H/MAT1 complex (Homo sapiens, UniProt P50613); test: CDK7 inhibition assay (Caliper/LabChip EZ Reader kinase assay); format: biochemical; conditions: Table 1; CDK7/Cyclin H/MAT1 6 nM, ATP 2 mM, 35 min at 27° C.
Method: (§1) Compounds of the invention were assayed for inhibition of CDK7, CDK9, CDK12, and CDK2 activity at Biortus Biosciences (Jiangyin, Jiangsu Province, P.R. of China) using kinase assays for each CDK developed with a Caliper/LabChip EZ Reader (Perkin Elmer, Waltham, MA).
(§2) Furthermore, the CDK9 inhibition assay used CDK9/Cyclin T1 complex (8 nM) and “5-FAM-CDK9tide” peptide substrate (2 μM, synthesized fluorophore-labeled peptide with the following sequence: 5-FAM-GSRTPMY-NH2 where 5-FAM is defined above and NH2 signifies a C-terminal amide) with 10 mM MgCl2 in the buffer composition listed above. […] Additionally, the CDK2 inhibition assay used CDK2/Cyclin E1 complex (0.5 nM) and “5-FAM-CDK7tide” ([…]) as defined above, with 2 mM MgCl2 in the buffer composition listed above.

[2] = target: CDK9/Cyclin T1 complex (Homo sapiens, UniProt P50750); test: CDK9 inhibition assay (Caliper/LabChip EZ Reader kinase assay); format: biochemical; conditions: Table 1; CDK9/Cyclin T1 8 nM, ATP 2 mM, 15 min at 27° C.
Method: as §1, §2

[3] = target: T1, CDK12 (aa686-1082)/Cyclin K complex (Homo sapiens, UniProt Q9NYV4); test: CDK12 inhibition assay (Caliper/LabChip EZ Reader kinase assay); format: biochemical; conditions: Table 1; CDK12 (aa686-1082)/Cyclin K 50 nM, ATP 2 mM, 3 hr at 27° C.
T1 construct: CDK12 (aa686-1082)/Cyclin K complex
Method: as §1, §2

[4] = target: CDK2/Cyclin E1 complex (Homo sapiens, UniProt P24941); test: CDK2 inhibition assay (Caliper/LabChip EZ Reader kinase assay); format: biochemical; conditions: Table 1; CDK2/Cyclin E1 0.5 nM, ATP 2 mM, 35 min at 27° C.
Method: as §1, §2

[5] = test system: A673 cells; test: Inhibition of proliferation of A673 cells (CyQUANT, 72 hour); format: cell-based, human; conditions: A673 cells, 72 hour, CyQUANT, read-out: Inhibition of Proliferation of A673 Cells (calculated IC50)
Method: A673 cells are a cell line derived from human […] Ewing's sarcoma. Representative compounds of the invention were tested at different concentrations (from […]; 0.5 log serial dilutions) for their ability to inhibit the proliferation of A673 cells. Known CDK inhibitors dinaciclib or N-((1S,3R)-3-((5-chloro-4-(1H-indol-3-yl)pyrimidin-2-yl)amino)cyclohexyl)-5-((E)-4-(dimethylamino)but-2-enamido)picolinamide and triptolide were used as positive controls. Cells were grown in Dulbecco's Modified Eagle's Medium, +10% FBS+1 mM Sodium Pyruvate. The cells were cultured at 37° C. in a humidified chamber in the presence of 5% CO2. Proliferation assays were conducted over a 72 hour time period. CyQUANT® (Life Technologies, Chicago, IL USA) was used to assess the anti-proliferative effects of the compounds following manufacturer's directions and utilizing the reagents supplied with the CyQUANT® kit.

Chain of CDK9/Cyclin T1 complex (P50750 whole entry, species assumed): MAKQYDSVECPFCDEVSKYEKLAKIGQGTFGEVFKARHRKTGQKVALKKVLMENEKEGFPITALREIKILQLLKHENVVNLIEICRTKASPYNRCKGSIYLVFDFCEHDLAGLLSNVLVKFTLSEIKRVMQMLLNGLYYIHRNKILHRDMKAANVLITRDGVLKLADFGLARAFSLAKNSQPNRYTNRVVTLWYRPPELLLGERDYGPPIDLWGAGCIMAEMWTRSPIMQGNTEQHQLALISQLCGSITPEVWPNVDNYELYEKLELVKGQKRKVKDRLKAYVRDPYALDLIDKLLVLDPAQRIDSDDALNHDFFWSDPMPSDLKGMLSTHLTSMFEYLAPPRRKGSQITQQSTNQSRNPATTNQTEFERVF
Chain of CDK9/Cyclin T1 complex (O60563 whole entry partner, species assumed): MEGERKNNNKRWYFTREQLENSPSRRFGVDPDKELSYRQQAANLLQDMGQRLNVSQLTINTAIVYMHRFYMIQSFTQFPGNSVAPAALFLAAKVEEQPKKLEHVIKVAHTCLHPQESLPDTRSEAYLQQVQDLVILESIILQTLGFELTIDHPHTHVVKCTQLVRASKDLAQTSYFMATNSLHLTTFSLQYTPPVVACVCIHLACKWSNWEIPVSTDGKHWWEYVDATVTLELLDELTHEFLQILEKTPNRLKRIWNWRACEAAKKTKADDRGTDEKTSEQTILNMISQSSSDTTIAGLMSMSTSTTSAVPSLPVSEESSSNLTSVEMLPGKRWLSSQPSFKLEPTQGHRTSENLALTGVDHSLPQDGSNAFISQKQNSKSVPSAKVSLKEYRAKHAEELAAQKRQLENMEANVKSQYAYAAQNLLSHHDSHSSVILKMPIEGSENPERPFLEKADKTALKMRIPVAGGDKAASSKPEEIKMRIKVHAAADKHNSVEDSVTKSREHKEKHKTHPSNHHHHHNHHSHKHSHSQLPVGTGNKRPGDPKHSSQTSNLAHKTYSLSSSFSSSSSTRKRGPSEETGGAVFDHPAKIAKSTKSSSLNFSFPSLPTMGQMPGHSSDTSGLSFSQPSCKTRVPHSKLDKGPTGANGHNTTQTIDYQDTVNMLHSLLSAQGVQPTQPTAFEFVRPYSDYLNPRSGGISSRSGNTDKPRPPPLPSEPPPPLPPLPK
Chain of CDK7/Cyclin H/MAT1 complex (P50613 whole entry, species assumed): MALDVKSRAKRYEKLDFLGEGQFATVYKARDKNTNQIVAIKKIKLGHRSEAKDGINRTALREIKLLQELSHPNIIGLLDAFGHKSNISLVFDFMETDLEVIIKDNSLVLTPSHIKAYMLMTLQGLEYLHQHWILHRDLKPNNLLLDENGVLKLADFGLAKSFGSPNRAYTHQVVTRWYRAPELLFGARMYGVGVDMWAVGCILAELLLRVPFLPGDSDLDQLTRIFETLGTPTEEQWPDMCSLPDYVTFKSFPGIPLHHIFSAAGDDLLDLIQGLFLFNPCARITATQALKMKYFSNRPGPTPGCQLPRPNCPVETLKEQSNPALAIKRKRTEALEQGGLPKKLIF
Chain of CDK7/Cyclin H/MAT1 complex (P51946 whole entry partner, species assumed): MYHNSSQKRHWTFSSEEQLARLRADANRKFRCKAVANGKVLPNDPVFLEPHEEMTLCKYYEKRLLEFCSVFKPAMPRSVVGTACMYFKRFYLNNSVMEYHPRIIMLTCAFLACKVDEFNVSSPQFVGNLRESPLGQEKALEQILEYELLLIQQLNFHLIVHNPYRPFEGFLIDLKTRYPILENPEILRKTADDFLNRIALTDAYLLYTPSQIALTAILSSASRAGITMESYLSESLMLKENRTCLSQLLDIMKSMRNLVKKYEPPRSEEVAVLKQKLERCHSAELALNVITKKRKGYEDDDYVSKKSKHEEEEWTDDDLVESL
Chain of CDK7/Cyclin H/MAT1 complex (P51948 whole entry partner, species assumed): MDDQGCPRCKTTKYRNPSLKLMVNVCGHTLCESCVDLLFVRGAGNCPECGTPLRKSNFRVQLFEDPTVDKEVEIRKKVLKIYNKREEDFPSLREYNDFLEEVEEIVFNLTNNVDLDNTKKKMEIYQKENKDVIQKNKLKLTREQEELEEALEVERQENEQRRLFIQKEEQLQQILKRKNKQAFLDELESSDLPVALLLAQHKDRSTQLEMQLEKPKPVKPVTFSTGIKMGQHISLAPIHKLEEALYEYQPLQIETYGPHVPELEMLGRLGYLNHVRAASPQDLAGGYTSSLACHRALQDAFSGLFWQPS
T1 sequence (Q9NYV4 686-1082, species assumed): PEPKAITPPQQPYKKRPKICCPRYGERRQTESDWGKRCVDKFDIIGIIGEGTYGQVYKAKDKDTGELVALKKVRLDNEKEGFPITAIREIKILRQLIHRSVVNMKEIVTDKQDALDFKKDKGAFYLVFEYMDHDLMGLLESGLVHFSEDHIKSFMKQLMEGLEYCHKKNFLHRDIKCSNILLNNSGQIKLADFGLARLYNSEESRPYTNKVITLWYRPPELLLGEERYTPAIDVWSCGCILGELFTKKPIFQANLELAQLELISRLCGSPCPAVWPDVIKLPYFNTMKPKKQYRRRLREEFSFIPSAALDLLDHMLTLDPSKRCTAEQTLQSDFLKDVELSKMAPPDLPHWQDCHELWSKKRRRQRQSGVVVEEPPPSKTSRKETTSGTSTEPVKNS
T1 sequence (O75909 whole entry partner, species assumed, the tested form may be a part): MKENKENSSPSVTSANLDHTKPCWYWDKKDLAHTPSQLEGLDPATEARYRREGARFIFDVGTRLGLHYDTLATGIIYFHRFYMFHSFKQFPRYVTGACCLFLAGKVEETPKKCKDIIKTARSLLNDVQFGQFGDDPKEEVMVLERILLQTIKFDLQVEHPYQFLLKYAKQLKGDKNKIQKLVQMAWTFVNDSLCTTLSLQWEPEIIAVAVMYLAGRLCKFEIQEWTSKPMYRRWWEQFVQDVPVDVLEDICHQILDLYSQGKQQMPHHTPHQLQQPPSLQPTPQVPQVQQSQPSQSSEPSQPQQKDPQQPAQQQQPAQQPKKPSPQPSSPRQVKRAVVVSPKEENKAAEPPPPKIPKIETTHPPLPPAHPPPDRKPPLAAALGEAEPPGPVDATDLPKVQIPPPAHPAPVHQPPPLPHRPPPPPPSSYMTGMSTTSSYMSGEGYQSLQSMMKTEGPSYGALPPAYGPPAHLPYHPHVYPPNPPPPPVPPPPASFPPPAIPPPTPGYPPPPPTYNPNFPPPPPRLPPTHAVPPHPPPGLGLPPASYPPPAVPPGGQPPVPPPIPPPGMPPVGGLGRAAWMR

Row | SMILES | pIC50 [1] | pIC50 [2] | pIC50 [3] | pIC50 [4] | pIC50 ([5]; Homo sapiens, A673, 72 h) | pIC50 ([5]; Homo sapiens) | pIC50 [5]
1 | CCc1cnc(N[C@H]2CCCNC2)nc1-c1n[nH]c2cc(C#N)ccc12 [Compound 275, (S)-3-(5-ethyl-2-(piperidin-3-ylamino)pyrimidin-4-yl)-1H-indazole-6-carbonitrile] | > 7.70 | 5.30 to 6.70 | 5.30 to 6.70 | 5.30 to 6.70 | 6.70 to 7.70 |  | 
2 | CCC(=O)N[C@@H]1CNC[C@H](Nc2ncc(C(F)(F)F)c(-c3c[nH]c4c(S(C)(=O)=O)cccc34)n2)C1 (single isomer, unassigned) [Compound 259] | > 7.70 | 5.30 to 6.70 | 5.30 to 6.70 | 5.30 to 6.70 | 6.70 to 7.70 |  | 
3 | CCc1cnc(N[C@H]2CCCNC2)nc1-c1c[nH]c2cc(S(C)(=O)=O)ccc12 [Compound 271] | 6.70 to 7.70 | < 5.30 | < 5.30 | < 5.30 | 5.30 to 6.70 |  | 
4 | CCOP(=O)(OCC)c1cccc2c(-c3nc(N[C@H]4CCCNC4)ncc3C(F)(F)F)c[nH]c12 [Compound 168] | 5.30 to 6.70 | < 5.30 | < 5.30 | < 5.30 |  | 5.30 to 6.70 | 
5 | FC(F)(F)c1cnc(N[C@H]2CCCNC2)nc1-c1c[nH]c2cc(-c3cccnc3)ccc12 [Compound 223, N-[(3S)-3-piperidyl]-4-[6-(3-pyridyl)-1H-indol-3-yl]-5-(trifluoromethyl) pyrimidin-2-amine] | > 7.70 | 5.30 to 6.70 | 5.30 to 6.70 | 5.30 to 6.70 | 6.70 to 7.70 |  | 
6 | Cc1nn(C)cc1-c1cccc2c(-c3nc(N[C@H]4CCCNC4)ncc3C(F)(F)F)c[nH]c12 [Compound 171] | > 7.70 | 5.30 to 6.70 | 5.30 to 6.70 | 5.30 to 6.70 | > 7.70 |  | 
7 | O[C@H]1CNC[C@@H](Nc2ncc(C(F)(F)F)c(-c3c[nH]c4ccccc34)n2)C1 [Compound 203, (3R,5S)-5-[[4-(1H-indol-3-yl)-5-(trifluoromethyl)pyrimidin-2-yl]amino]piperidin-3-ol] | > 7.70 | 5.30 to 6.70 | 5.30 to 6.70 | 5.30 to 6.70 | > 7.70 |  | 
8 | CC(C)(O)CCc1ccc2c(-c3nc(N[C@H]4CCCNC4)ncc3C(F)(F)F)c[nH]c2c1 [Compound 242, 2-methyl-4-[3-[2-[[(3S)-3-piperidyl]amino]-5-(trifluoromethyl)pyrimidin-4-yl]-1H-indol-6-yl] butan-2-ol] | 6.70 to 7.70 | 5.30 to 6.70 | 5.30 to 6.70 | < 5.30 | 6.70 to 7.70 |  | 
9 | CCOP(C)(=O)c1cccc2c(-c3nc(N[C@H]4CCCNC4)ncc3C(F)(F)F)c[nH]c12 (stereo partly shown) [Compound 179] | > 7.70 | 5.30 to 6.70 | 5.30 to 6.70 | 5.30 to 6.70 |  | > 7.70 | 
10 | O=S1(=O)CCN(c2cccc3c(-c4nc(N[C@H]5CCCNC5)ncc4Cl)c[nH]c23)CC1 [Compound 196, 5-chloro-4-[7-(1,1-dioxo-1,4-thiazinan-4-yl)-1H-indol-3-yl]-N-[(3S)-3-piperidyl]pyrimidin-2-amine] | > 7.70 | 5.30 to 6.70 | 5.30 to 6.70 | 5.30 to 6.70 | 6.70 to 7.70 |  | 
11 | Fc1cc2[nH]cc(-c3nc(N[C@H]4CCCNC4)ncc3C(F)(F)F)c2cc1F [Compound 184] | > 7.70 | 6.70 to 7.70 | 6.70 to 7.70 | 6.70 to 7.70 |  |  | > 7.70
12 | FC(F)(F)c1cnc(NC2CNCc3ccccc32)nc1-c1c[nH]c2ccccc12 (stereo not shown) [Compound 216] | 5.30 to 6.70 | < 5.30 | < 5.30 | 5.30 to 6.70 |  |  | 5.30 to 6.70
13 | CS(=O)(=O)c1cccn2c([C@H]3CCC[C@@H](Nc4ncc(C(F)(F)F)c(-c5c[nH]c6ccccc56)n4)C3)nnc12 [Compound 265, 4-(1H-indol-3-yl)-N-[(1R,3S)-3-(8-methylsulfonyl-[1,2,4]triazolo [4,3-a]pyridin-3-yl)cyclohexyl]-5-(trifluoromethyl) pyrimidin-2-amin] | 5.30 to 6.70 | 5.30 to 6.70 | 5.30 to 6.70 | 5.30 to 6.70 | 6.70 to 7.70 |  | 

Second part, led by results:

Row | pIC50 [1] | pIC50 [2] | pIC50 [3] | pIC50 [4] | SMILES | pIC50 ([5]; Homo sapiens, A673, 72 h) | pIC50 ([5]; Homo sapiens) | pIC50 [5]
14 | < 5.30 | < 5.30 | < 5.30 | < 5.30 | CCc1cnc(-c2c[nH]c3ncc(F)cc23)nc1N[C@H]1CCCNC1 [Compound 231, 5-ethyl-2-(5-fluoro-1H-pyrrolo [2,3-b]pyridin-3-yl)-N-[(3S)-3-piperidyl] pyrimidin-4-amine] | 5.30 to 6.70 |  | 
15 | 5.30 to 6.70 | < 5.30 | < 5.30 | < 5.30 | CC(O)c1cnc(NC2CCCNC2)nc1-c1c[nH]c2ccccc12 (single isomer, unassigned) [Compound 238] | 5.30 to 6.70 |  | 
16 | > 7.70 | 5.30 to 6.70 | 5.30 to 6.70 | 5.30 to 6.70 | Cn1cc(-c2ccc3c(-c4nc(N[C@H]5CCCNC5)ncc4C(F)(F)F)c[nH]c3c2)cc1C#N [Compound 225, 1-methyl-4-[3-[2-[[(3S)-3-piperidyl]amino]-5-(trifluoromethyl)pyrimidin-4-yl]-1H-indol-6-yl] pyrrole-2-carbonitrile] | 6.70 to 7.70 |  | 
17 | > 7.70 | < 5.30 | 5.30 to 6.70 | < 5.30 | N#Cc1cn(-c2ccc3c(-c4nc(NC5CCCNC5)ncc4C(F)(F)F)c[nH]c3c2)cn1 (stereo not shown) [Compound 249] | 6.70 to 7.70 |  | 
18 | > 7.70 | 5.30 to 6.70 | < 5.30 | 5.30 to 6.70 | FC(F)(F)c1cnc(N[C@H]2CCCNC2)nc1-c1c[nH]c2cc(-c3ncc[nH]3)ccc12 [Compound 202, 4-[6-(1H-imidazol-2-yl)-1H-indol-3-yl]-N-[(3S)-3-piperidyl]-5-(trifluoromethyl) pyrimidin-2-amine] | 6.70 to 7.70 |  | 
19 | > 7.70 | 5.30 to 6.70 | 5.30 to 6.70 | 5.30 to 6.70 | FC(F)(F)c1cnc(N[C@H]2CCCNC2)nc1-c1c[nH]c2cc(-c3ccnnc3)ccc12 [Compound 230, N-[(3S)-3-piperidyl]-4-(6-pyridazin-4-yl-1H-indol-3-yl)-5-(trifluoromethyl) pyrimidin-2-amine] | 6.70 to 7.70 |  | 
20 | > 7.70 | 5.30 to 6.70 | 5.30 to 6.70 | 6.70 to 7.70 | Ic1cnc(N[C@H]2CCCNC2)nc1-c1c[nH]c2ccccc12 [Compound 147] |  |  | > 7.70
21 | 6.70 to 7.70 | < 5.30 | < 5.30 | < 5.30 | CC(C)C1CC[C@H](Nc2ncc(C(F)(F)F)c(-c3c[nH]c4ccccc34)n2)CN1 (mixture of isomers) [Compound 257] | 5.30 to 6.70 |  | 
22 | > 7.70 | 5.30 to 6.70 | 5.30 to 6.70 | 5.30 to 6.70 | Cc1cn(-c2cccc3c(-c4nc(N[C@H]5CCCNC5)ncc4C(F)(F)F)c[nH]c23)cn1 [Compound 172] | > 7.70 |  | 
23 | 5.30 to 6.70 | < 5.30 | < 5.30 | < 5.30 | CC(O)c1cnc(N[C@H]2CCCNC2)nc1-c1c[nH]c2ccccc12 (mixture of isomers) [Compound 234] | > 7.70 |  | 
24 | 6.70 to 7.70 | 5.30 to 6.70 | 5.30 to 6.70 | 5.30 to 6.70 | CCCCCC1CC[C@H](Nc2ncc(C(F)(F)F)c(-c3c[nH]c4ccccc34)n2)CN1 (mixture of isomers) [Compound 241] | 6.70 to 7.70 |  | 
25 | > 7.70 | 5.30 to 6.70 | 5.30 to 6.70 | 5.30 to 6.70 | CN1CCC[C@H](Nc2ncc(Cl)c(-c3c[nH]c4ccccc34)n2)C1 [Compound 136] | 6.70 to 7.70 |  | 
26 | 5.30 to 6.70 | < 5.30 | < 5.30 | < 5.30 | CC1(C)CCNC[C@@H]1Nc1ncc(C(F)(F)F)c(-c2c[nH]c3ccccc23)n1 (single isomer, unassigned) [Compound 209] | 6.70 to 7.70 |  | 
